Test results reported in ChEMBL document CHEMBL4028802, “DILIrank: the largest reference drug list ranked by the risk for developing drug-induced liver injury in humans” (Drug Discov Today, 2016).

Tests used:
Homo sapiens [1] = species on record: Homo sapiens; experiment: Liver toxicity in human assessed as induction of drug-induced liver injury by measuring severity class index
Homo sapiens [2] = species on record: Homo sapiens; experiment: Liver toxicity in human assessed as induction of drug-induced liver injury by measuring verified drug-induced liver injury concern status
Throughout, for DILI severity class: key of the grades not given here.

| Compound | DILI_severity_class (Homo sapiens [1]) | DILI_Concern (Homo sapiens [2]) |
| --- | --- | --- |
| CC(C)(C#N)c1cc(Cn2cncn2)cc(C(C)(C)C#N)c1 [ANASTROZOLE] | 3 | Less-Dili-Concern |
| CC(N)C12CC3CC(CC(C3)C1)C2 (configuration not stated) [RIMANTADINE] | 0 | No-Dili-Concern |
| CN1CCC[C@@H]1CCO[C@](C)(c1ccccc1)c1ccc(Cl)cc1 [CLEMASTINE] | 0 | No-Dili-Concern |
| NS(=O)(=O)c1cc(C2(O)NC(=O)c3ccccc32)ccc1Cl (configuration not stated) [CHLORTHALIDONE] | 2 | Ambiguous-Dili-Concern |
| Cc1nnc(NS(=O)(=O)c2ccc(N)cc2)s1 [SULFAMETHIZOLE] | 0 | Less-Dili-Concern |
| N[C@@H](Cc1cc(I)c(Oc2cc(I)c(O)c(I)c2)c(I)c1)C(=O)O [LEVOTHYROXINE] | 3 | Less-Dili-Concern |
| CN1C(CSCC(F)(F)F)Nc2cc(Cl)c(S(N)(=O)=O)cc2S1(=O)=O (configuration not stated) [POLYTHIAZIDE] | 2 | Ambiguous-Dili-Concern |
| CN(C)c1cc(NC(=O)CNC(C)(C)C)c(O)c2c1C[C@H]1C[C@H]3[C@H](N(C)C)C(O)=C(C(N)=O)C(=O)[C@@]3(O)C(O)=C1C2=O [TIGECYCLINE] | 8 | Ambiguous-Dili-Concern |
| CC(=O)OCC[N+](C)(C)C.[Cl-] [ACETYLCHOLINE CHLORIDE] | 0 | No-Dili-Concern |
| CC(=O)O.CCNC(=O)[C@@H]1CCCN1C(=O)[C@H](CCCNC(=N)N)NC(=O)[C@H](CC(C)C)NC(=O)[C@@H](Cc1cn(Cc2ccccc2)cn1)NC(=O)[C@H](Cc1ccc(O)cc1)NC(=O)[C@H](CO)NC(=O)[C@H](Cc1c[nH]c2ccccc12)NC(=O)[C@H](Cc1cnc[nH]1)NC(=O)[C@@H]1CCC(=O)N1 [HISTRELIN ACETATE] | 3 | Ambiguous-Dili-Concern |
| N[C@@H]1CON=C1O [CYCLOSERINE] | 3 | Ambiguous-Dili-Concern |
| CC(C)c1cccc(C(C)C)c1OCOP(=O)(O)O [FOSPROPOFOL] | 0 | Less-Dili-Concern |
| Cc1nc([N+](=O)[O-])cn1-c1ccc([N+](=O)[O-])cc1 [NITREFAZOLE] | 8 | Most-Dili-Concern |
| NC(CO)(CO)CO [TROMETHAMINE] | 6 | Ambiguous-Dili-Concern |
| CC(C)NCC(O)COc1cccc2[nH]ccc12 (configuration not stated) [PINDOLOL] | 0 | No-Dili-Concern |
| C[C@H]1[C@H](NC(=O)/C(=N\OC(C)(C)C(=O)O)c2csc(N)n2)C(=O)N1S(=O)(=O)O [AZTREONAM] | 5 | Ambiguous-Dili-Concern |
| NC(=O)[C@@H]1CCCN1C(=O)[C@H](Cc1cnc[nH]1)NC(=O)[C@@H]1CCC(=O)N1 [PROTIRELIN] | 0 | No-Dili-Concern |
| CC(C)(C)NC[C@H](O)COc1nsnc1N1CCOCC1 [TIMOLOL] | 5 | Ambiguous-Dili-Concern |
| CCc1c2c(nc3ccc(OC(=O)N4CCC(N5CCCCC5)CC4)cc13)-c1cc3c(c(=O)n1C2)COC(=O)[C@]3(O)CC [IRINOTECAN] | 3 | Less-Dili-Concern |
| CC[C@@H](CO)NC(=O)[C@@H]1C=C2c3cccc4[nH]cc(c34)C[C@H]2N(C)C1 [METHYLERGONOVINE] | 0 | No-Dili-Concern |
| CN(C/C=C/C#CC(C)(C)C)Cc1cccc2ccccc12 [TERBINAFINE] | 8 | Most-Dili-Concern |
| COc1ccc2c(C(=S)N(C)CC(=O)O)cccc2c1C(F)(F)F [TOLRESTAT] | 8 | Most-Dili-Concern |
| O=S([O-])([O-])=S.[Na+].[Na+] | 0 | No-Dili-Concern |
| CCCC(C)(COC(N)=O)COC(=O)NC(C)C (configuration not stated) [CARISOPRODOL] | 0 | No-Dili-Concern |
| Cc1nc(-c2ccc(OCC(C)C)c(C#N)c2)sc1C(=O)O [FEBUXOSTAT] | 8 | Most-Dili-Concern |
| C1CCC(C(CC2CCCCN2)C2CCCCC2)CC1 (configuration not stated) [PERHEXILINE] | 8 | Most-Dili-Concern |

| Compound | DILI_severity_class (Homo sapiens [1]) | DILI_Concern (Homo sapiens [2]) |
| --- | --- | --- |
| O=C(O)c1cc(/N=N/c2ccc(O)c(C(=O)O)c2)ccc1O [OLSALAZINE] | 8 | Less-Dili-Concern |
| CN[C@@H]1CCc2[nH]c3ccc(C(N)=O)cc3c2C1 [FROVATRIPTAN] | 0 | No-Dili-Concern |
| CC(S)C(=O)NCC(=O)O (configuration not stated) [TIOPRONIN] | 3 | Ambiguous-Dili-Concern |
| CCOC(=O)[C@H](CCc1ccccc1)N[C@@H](C)C(=O)N1CCC[C@H]1C(=O)O | 7 | Less-Dili-Concern |
| COC[C@@H](NC(C)=O)C(=O)NCc1ccccc1 [LACOSAMIDE] | 3 | Ambiguous-Dili-Concern |
| OC[C@H]1OC(O)[C@H](O)[C@@H](O)[C@@H]1O (some centres not stated) [DEXTROSE] | 0 | No-Dili-Concern |
| CC(C[N+](C)(C)C)OC(N)=O (configuration not stated) [BETHANECHOL] | 0 | No-Dili-Concern |
| CCCCC1=NC2(CCCC2)C(=O)N1Cc1ccc(-c2ccccc2-c2nnn[nH]2)cc1 [IRBESARTAN] | 5 | Less-Dili-Concern |
| CCOC(=O)[C@H](CCc1ccccc1)N[C@@H](C)C(=O)N1[C@H](C(=O)O)C[C@H]2CCCC[C@@H]21 [TRANDOLAPRIL] | 4 | Less-Dili-Concern |
| CCOC(=O)[C@H](CCc1ccccc1)N[C@@H](C)C(=O)N1Cc2ccccc2C[C@H]1C(=O)O | 3 | Less-Dili-Concern |
| C1N2CN3CN1CN(C2)C3.O=C(O)CNC(=O)c1ccccc1 [METHENAMINE HIPPURATE] | 3 | Ambiguous-Dili-Concern |
| CN(C)C/C=C(/c1ccc(Br)cc1)c1cccnc1 [ZIMELDINE] | 8 | Most-Dili-Concern |
| CCOC(=O)c1ncn2c1CN(C)C(=O)c1cc(F)ccc1-2 [FLUMAZENIL] | 0 | No-Dili-Concern |
| C[C@@H](O)[C@H]1C(=O)N2C(C(=O)O)=C(S[C@@H]3CN[C@H](C(=O)Nc4cccc(C(=O)O)c4)C3)[C@H](C)[C@H]12 | 3 | Ambiguous-Dili-Concern |
| CC1(C)S[C@@H]2[C@H](NC(=O)Cc3ccccc3)C(=O)N2[C@H]1C(=O)O [PENICILLIN G] | 3 | Less-Dili-Concern |
| COc1ccc2c3c1O[C@H]1[C@@H](O)C=C[C@H]4[C@@H](C2)N(C)CC[C@@]341 [CODEINE] | 0 | No-Dili-Concern |
| CCOC(=O)CN[C@@H](C(=O)N1CC[C@H]1C(=O)NCc1ccc(/C(N)=N\O)cc1)C1CCCCC1 [XIMELAGATRAN] | 8 | Most-Dili-Concern |
| CC(CCc1ccc(O)cc1)NCCc1ccc(O)c(O)c1 (configuration not stated) [DOBUTAMINE] | 0 | No-Dili-Concern |
| NC(=O)N1c2ccccc2CC(=O)c2ccccc21 [OXCARBAZEPINE] | 3 | Less-Dili-Concern |
| Nc1nc(Cl)nc2c1ncn2[C@@H]1O[C@H](CO)[C@@H](O)[C@@H]1F [CLOFARABINE] | 8 | Ambiguous-Dili-Concern |
| Cc1cn(-c2cc(NC(=O)c3ccc(C)c(Nc4nccc(-c5cccnc5)n4)c3)cc(C(F)(F)F)c2)cn1 [NILOTINIB] | 4 | Ambiguous-Dili-Concern |
| CCC(C)CCCCC(=O)N[C@@H](CCNCS(=O)(=O)O)C(=O)N[C@H](C(=O)N[C@@H](CCNCS(=O)(=O)O)C(=O)N[C@H]1CCNC(=O)[C@H]([C@@H](C)O)NC(=O)[C@H](CCNCS(=O)(=O)O)NC(=O)[C@H](CCNCS(=O)(=O)O)NC(=O)[C@H](CC(C)C)NC(=O)[C@@H](CC(C)C)NC(=O)[C@H](CCNCS(=O)(=O)O)NC1=O)[C@@H](C)O (some centres not stated) | 0 | No-Dili-Concern |
| Cc1oncc1C(=O)Nc1ccc(C(F)(F)F)cc1 [LEFLUNOMIDE] | 8 | Most-Dili-Concern |
| Cc1nc2n(c(=O)c1CCN1CCC(c3noc4cc(F)ccc34)CC1)CCCC2 [RISPERIDONE] | 3 | Less-Dili-Concern |
| NCCc1ccc(O)c(O)c1 [DOPAMINE] | 0 | No-Dili-Concern |
